Here are results for one compound from patent US20140113904A1, “TREATMENT OF CANCER WITH TOR KINASE INHIBITORS” (SIGNAL PHARMACEUTICALS, LLC, priority 2012, published 2014).

Data set [1] relates to CD-31. Nature of the data set: CD-31 immunohistochemistry in PC3 tumors (Compound 1). It is filed as in vivo, SCID mice. The note with it: 25 mg/kg oral QD for 6 days, 2 hours after last dose. The protocol:
Two hours after the last dose of either vehicle, Compound 1, or rapamycin, the mice were euthanized and the tumors were dissected. The tumors were snap frozen in liquid nitrogen and processed for immunohistochemistry (IHC) and TUNEL.
Five to ten micron thick cryostat sections of tumor samples were used for IHC. The expression of a cell proliferation marker Ki-67 was evaluated by IHC using anti-Ki-67 antibody. Anti-CD-31 antibody was used to determine blood vessel density and is a measurement of tumor angiogenesis. Frozen sections were fixed in 4% paraformaldehyde for 10 minutes at room temperature, washed in PBS, blocked and permeabilized with normal goat serum and triton x-100. Sections were then incubated with primary antibody (overnight) followed by incubation with secondary antibody (60 minutes). […] The sections were visualized with a Nikon E800 microscope equipped with fluorescence detection equipment and a digital camera attached to a computer.
The tissues sections processed for apoptosis or immunostained for proliferating cells (Ki-67) or blood vessels were quantitated using Metamorph software. Using 20× objective, 5 different fields from each section, 2 to 4 sections from each tumor, and 3 to 4 tumors from each treatment group or control were used for quantitation. The area of interest was expressed as the percent threshold area of the total area.

The nature of data set [2]: Mouse plasma protein binding. The class given is in vitro ADME. Conditions: Compound 1.
Data set [3] deals with PC3 cells. The data set can be described thus: Cell cycle distribution by flow cytometry-based PI staining. More on the design: species or system human. The protocol: PC3 tumor cells were plated at 250,000 cells per well in a 6-well plate and allowed to equilibrate overnight in 5% CO2 at 37° C. For treatment, the media was aspirated to remove dead/floating cells before addition of 3 mL of media with or without compound. […] The cells were then processed for cell cycle analysis. The media was transferred into a 15 mL tube. The cells were trypsinized and transferred to the same tube. The cells were then spun at 12 000 rpm, re-suspended in 500 μL propidium iodide (PI) staining buffer, and incubated at room temperature in the dark for 30 minutes. The sample was then analyzed on a FACSCaliber instrument. The cell cycle experiments were performed on two independent occasions.
The raw data collected from BD FACS Calibur was analyzed by cell cycle software ModFit LT (Verity Software House, Inc). The histogram was generated using the automatic analysis setting. All numbers generated by ModFit LT were transferred to Microsoft Excel and graphed.
PC3 cells display an aneuploid phenotype which is evident in the comparison with HeLa cells.
Background: In flow cytometry, cells or beads pass a laser one at a time.

Data set [4] in a line: Body weight in Compound 1 PC3 xenograft efficacy studies. It is filed as in vivo, SCID mice. The protocol: The BID dose groups were dosed with a 10-hour separation between the morning and evening doses. […] At the end of each study, plasma and/or tumor samples were collected.
Initial body weights were recorded prior to the initiation of treatment using a digital scale. The percent body weight change during the course of the study was calculated using initial body weight measurements. Body weights of each animal were measured twice a week at the same time that tumor measurements were taken. Body weights were measured more frequently if significant decreases were noted during the course of the study.

In the case of `CO[C@H]1CC[C@H](N2C(=O)CNc3ncc(-c4ccc(C(C)(C)O)nc4)nc32)CC1` [Compound 1, 7-(6-(2-hydroxypropan-2-yl)pyridin-3-yl)-1-((1r,4r)-4-methoxycyclohexyl)-3,4-dihydropyrazino-[2,3-b]pyrazin-2(1H)-one], the “CD-31 positive blood vessels vs vehicle” value in data set [1] is reported as “significantly (p<0.01) fewer”. The “mouse plasma protein binding” value in data set [2] is 88%. Besides, the “% G1” value in data set [3] (0.5 μM, 24 hours) is listed as 81.1%; in data set [3] (1 μM, 24 hours) it was 88.6%; in data set [3] (5 μM, 24 hours), 89.2%. Also, the “% G1a” value in data set [3] (0.5 μM, 24 hours) stood at 79%; in data set [3] (1 μM, 24 hours), 84.8%; in data set [3] (5 μM, 24 hours), 83.9%. In data set [3] (24 hours), the “induction of apoptosis (sub-G1 peak)” value is reported as “did not appear to be induction of apoptosis”. Further, the “effect on cell cycle distribution” value in data set [3] (concentrations relevant to growth inhibition) was “capable of inducing a G1 arrest”. Further, the “change in body weight” value in data set [4] (10 mg/kg QD, 3 weeks, data not shown) is listed as “No significant change”. The “loss of initial body mass” value in data set [4] (25 mg/kg QD, end of the first cycle) is reported as “approximately 10%”. The body weight loss entry in data set [4] (25 mg/kg QD, intermittent dosing study period) is recorded as “about 10%”. The body weight change entry in data set [4] (25 mg/kg QD, second dosing cycle) was “about 5%”. Moreover, the “loss of initial body weight” value in data set [4] (regression study, 25 mg/kg QD, by Day 26, euthanized) is on record as “over 19%”.
